Columns and labels:
[1] = tested on: choreic dyskinesia induced by dopamine agonist; experiment: In vivo model for dyskinesias associated with dopamine agonist therapy (MPTP parkinsonian monkeys); settings: 0.3 mg/kg sc.; one MPTP parkinsonian monkey, dyskinesias induced by chronic L-DOPA followed by PHNO
Description: The following procedure may be used to assess the efficacy of an AMPA receptor antagonist in the treatment of dyskinesias associated with dopamine agonist therapy in the treatment of Parkinson's disease. Aged, female rhesus monkeys are rendered Parkinsonian as follows. Each monkey is first infused with 0.4 mg/kg MPTP (1-methyl-4-phenyl-1,2,3,6-tetrahydropyridine) via the right internal carotid artery. After being evaluated behaviorally for 3 to 6 weeks and being judged to have stable unilateral deficits, the animals receive a second MPTP injection via the left internal carotid artery. […] Once the monkeys are Parkinsonian, dyskinesias are induced over a period of approximately 3 to 6 weeks by treating the monkeys twice daily with subcutaneous injections of PHNO ((+)-4-propyl-9-hydroxynaphthoxazine) (a dopamine agonist). Dyskinesias are assessed 30 minutes after PHNO injection and every 30 minutes for the next 120 minutes (5 measurements) taking into account the following: type of dyskinesia (chorea, dystonia); intensity (0=absent; 1=mild; 2=moderate; 3=severe); and topography (arm, leg, trunk, generalized). The overall score (0-3) is averaged over the 5 measurements. Scoring is performed blindly from coded videotapes. An AMPA receptor antagonist is then administered together with the dopamine agonist at dosages ranging from 0.05 mg/kg to 1 mg/kg. […]

[2] = tested on: behavior of monkeys (MPTP-treated or untreated); experiment: Behavioral effect in other monkeys (MPTP-treated or untreated); format: in vivo, monkey; settings: 0.3 mg/kg sc.
Description: Monkeys were made parkinsonian by intracarotid injection of the dopamine neuron toxin MPTP. Choreic and dystonic dyskinesias were induced in one monkey by chronic administration of L-DOPA followed by the selective D2 agonist PHNO. 3-(2-chloro-phenyl)-2-[2(6-diethylaminomethyl-pyridin-2-yl)-vinyl]-6-fluoro-3H-quinazolin-4-one (0.3 mg/kg sc.) reduced by 80% the choreic dyskinesia induced by dopamine agonist.

behavioral effect [2]: little or no behavioral effect
SMILES: CCN(CC)Cc1cccc(C=Cc2nc3ccc(F)cc3c(=O)n2-c2ccccc2Cl)n1 [3-(2-chloro-phenyl)-2-[2-(6-diethylaminomethyl-pyridin-2-yl)-vinyl]-6-fluoro-3H-quinazolin-4-one]
reduction of choreic dyskinesia induced by dopamine agonist [1]: 80%
